Assay results taken from patent US11718604B2, “4-amino-6-(1,3-benzodioxole)picolinates and their use as herbicides” (Dow AgroSciences LLC, priority 2018, dated 2023).

Assays:
Type in all cases: in vivo
[1] = tested on: ABUTH: velvetleaf (Abutilon theophrasti); experiment: Post-emergent herbicidal test, velvetleaf; conditions: post-emergence, 336 h, 14 days after application, read-out: Visual Growth Reduction (%) 14 Days After Application ABUTH; for pest or weed control at 17.5 g/ha: 17.5 g ai/ha; for pest or weed control at 35 g/ha: 35 g ai/ha; for pest or weed control at 70 g/ha: 70 g ai/ha; for pest or weed control at 140 g/ha: 140 g ai/ha
Method in brief: (§1)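 Visual injury rating, 0 (none) to 100% (complete kill), made 14 d after treatment relative to untreated plants. Foliar track-sprayer application at 187 L/ha to plants at the 1st-2nd true leaf stage; rates were twofold serial dilutions from the highest rate down to 1/16×.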

[2] = tested on: BRSNN: oilseed rape, canola (Brassica napus); experiment: Post-emergent herbicidal test, oilseed rape; conditions: post-emergence, 336 h, 14 days after application, read-out: Visual Growth Reduction (%) 14 Days After Application BRSNN; for pest or weed control at 17.5 g/ha: 17.5 g ai/ha; for pest or weed control at 35 g/ha: 35 g ai/ha; for pest or weed control at 70 g/ha: 70 g ai/ha; for pest or weed control at 140 g/ha: 140 g ai/ha
Method in brief: as §1

[3] = tested on: CIRAR: Canada thistle (Cirsium arvense); experiment: Post-emergent herbicidal test, Canada thistle; conditions: post-emergence, 336 h, 14 days after application, read-out: Visual Growth Reduction (%) 14 Days After Application CIRAR; for pest or weed control at 17.5 g/ha: 17.5 g ai/ha; for pest or weed control at 35 g/ha: 35 g ai/ha; for pest or weed control at 70 g/ha: 70 g ai/ha; for pest or weed control at 140 g/ha: 140 g ai/ha
Method in brief: as §1

[4] = tested on: EPHHL: wild poinsettia (Euphorbia heterophylla); experiment: Post-emergent herbicidal test, wild poinsettia; conditions: post-emergence, 336 h, 14 days after application, read-out: Visual Growth Reduction (%) 14 Days After Application EPHHL; for pest or weed control at 17.5 g/ha: 17.5 g ai/ha; for pest or weed control at 35 g/ha: 35 g ai/ha; for pest or weed control at 70 g/ha: 70 g ai/ha; for pest or weed control at 140 g/ha: 140 g ai/ha
Method in brief: as §1

[5] = tested on: IPOHE: ivyleaf morningglory (Ipomoea hederacea); experiment: Post-emergent herbicidal test, ivyleaf morningglory; conditions: post-emergence, 336 h, 14 days after application, read-out: Visual Growth Reduction (%) 14 Days After Application IPOHE; for pest or weed control at 17.5 g/ha: 17.5 g ai/ha; for pest or weed control at 35 g/ha: 35 g ai/ha; for pest or weed control at 70 g/ha: 70 g ai/ha; for pest or weed control at 140 g/ha: 140 g ai/ha
Method in brief: as §1

[6] = tested on: VIOTR: wild violet (Viola tricolor); experiment: Post-emergent herbicidal test, wild violet; conditions: post-emergence, 336 h, 14 days after application, read-out: Visual Growth Reduction (%) 14 Days After Application VIOTR; for pest or weed control at 17.5 g/ha: 17.5 g ai/ha; for pest or weed control at 35 g/ha: 35 g ai/ha; for pest or weed control at 70 g/ha: 70 g ai/ha; for pest or weed control at 140 g/ha: 140 g ai/ha
Method in brief: as §1

[7] = tested on: CYPES: yellow nutsedge (Cyperus esculentus); experiment: Post-emergent herbicidal test, yellow nutsedge; conditions: post-emergence, 336 h, 14 days after application, read-out: Visual Growth Reduction (%) 14 Days After Application CYPES; for pest or weed control at 17.5 g/ha: 17.5 g ai/ha; for pest or weed control at 35 g/ha: 35 g ai/ha; for pest or weed control at 70 g/ha: 70 g ai/ha; for pest or weed control at 140 g/ha: 140 g ai/ha
Method in brief: as §1

[8] = tested on: DIGSA: large crabgrass (Digitaria sanguinalis); experiment: Post-emergent herbicidal test, large crabgrass; conditions: post-emergence, 336 h, 14 days after application, read-out: Visual Growth Reduction (%) 14 Days After Application DIGSA; for pest or weed control at 17.5 g/ha: 17.5 g ai/ha; for pest or weed control at 35 g/ha: 35 g ai/ha; for pest or weed control at 70 g/ha: 70 g ai/ha; for pest or weed control at 140 g/ha: 140 g ai/ha
Method in brief: as §1

[9] = tested on: ECHCG: barnyardgrass (Echinochloa crus-galli); experiment: Post-emergent herbicidal test, barnyardgrass; conditions: post-emergence, 336 h, 14 days after application, read-out: Visual Growth Reduction (%) 14 Days After Application ECHCG; for pest or weed control at 17.5 g/ha: 17.5 g ai/ha; for pest or weed control at 35 g/ha: 35 g ai/ha; for pest or weed control at 70 g/ha: 70 g ai/ha; for pest or weed control at 140 g/ha: 140 g ai/ha
Method in brief: as §1

[10] = tested on: SETFA: giant foxtail (Setaria faberi); experiment: Post-emergent herbicidal test, giant foxtail; conditions: post-emergence, 336 h, 14 days after application, read-out: Visual Growth Reduction (%) 14 Days After Application SETFA; for pest or weed control at 17.5 g/ha: 17.5 g ai/ha; for pest or weed control at 35 g/ha: 35 g ai/ha; for pest or weed control at 70 g/ha: 70 g ai/ha; for pest or weed control at 140 g/ha: 140 g ai/ha
Method in brief: as §1

[11] = tested on: SORVU: shattercane (Sorghum bicolor); experiment: Post-emergent herbicidal test, shattercane; conditions: post-emergence, 336 h, 14 days after application, read-out: Visual Growth Reduction (%) 14 Days After Application SORVU; for pest or weed control at 17.5 g/ha: 17.5 g ai/ha; for pest or weed control at 35 g/ha: 35 g ai/ha; for pest or weed control at 70 g/ha: 70 g ai/ha; for pest or weed control at 140 g/ha: 140 g ai/ha
Method in brief: as §1

Nc1c(F)c(-c2cccc3c2OCO3)nc(C(=O)O)c1Cl [Compound 3]
70%: pest or weed control at 17.5 g/ha [3]
35%: pest or weed control at 140 g/ha [6]
30%: pest or weed control at 70 g/ha [6]
95%: pest or weed control at 70 g/ha [1] | pest or weed control at 140 g/ha [1] | pest or weed control at 70 g/ha [2] | pest or weed control at 70 g/ha [3] | pest or weed control at 140 g/ha [3]
98%: pest or weed control at 140 g/ha [2]
60%: pest or weed control at 17.5 g/ha [1] | pest or weed control at 17.5 g/ha [2]
80%: pest or weed control at 35 g/ha [1] | pest or weed control at 35 g/ha [2]
0%: pest or weed control at 17.5 g/ha [4] | pest or weed control at 35 g/ha [4] | pest or weed control at 70 g/ha [4] | pest or weed control at 140 g/ha [4] | pest or weed control at 17.5 g/ha [5] | pest or weed control at 35 g/ha [5] | pest or weed control at 70 g/ha [5] | pest or weed control at 140 g/ha [5] | pest or weed control at 17.5 g/ha [6] | pest or weed control at 17.5 g/ha [7] | pest or weed control at 35 g/ha [7] | pest or weed control at 70 g/ha [7] | pest or weed control at 140 g/ha [7] | pest or weed control at 17.5 g/ha [8] | pest or weed control at 35 g/ha [8] | pest or weed control at 70 g/ha [8] | pest or weed control at 140 g/ha [8] | pest or weed control at 17.5 g/ha [9] | pest or weed control at 35 g/ha [9] | pest or weed control at 70 g/ha [9] | pest or weed control at 140 g/ha [9] | pest or weed control at 17.5 g/ha [10] | pest or weed control at 35 g/ha [10] | pest or weed control at 70 g/ha [10] | pest or weed control at 140 g/ha [10] | pest or weed control at 17.5 g/ha [11] | pest or weed control at 35 g/ha [11] | pest or weed control at 70 g/ha [11] | pest or weed control at 140 g/ha [11]
85%: pest or weed control at 35 g/ha [3]
15%: pest or weed control at 35 g/ha [6]

COC(=O)c1nc(-c2ccc(Cl)c3c2OC(F)(F)O3)c(Cl)c(N)c1Cl [Compound 13]
75%: pest or weed control at 70 g/ha [1]
10%: pest or weed control at 35 g/ha [5]
50%: pest or weed control at 35 g/ha [1] | pest or weed control at 17.5 g/ha [3]
30%: pest or weed control at 17.5 g/ha [1] | pest or weed control at 140 g/ha [5]
70%: pest or weed control at 70 g/ha [2]
40%: pest or weed control at 17.5 g/ha [2]
20%: pest or weed control at 70 g/ha [5]
85%: pest or weed control at 140 g/ha [3]
0%: pest or weed control at 17.5 g/ha [4] | pest or weed control at 35 g/ha [4] | pest or weed control at 70 g/ha [4] | pest or weed control at 140 g/ha [4] | pest or weed control at 17.5 g/ha [5] | pest or weed control at 17.5 g/ha [6] | pest or weed control at 35 g/ha [6] | pest or weed control at 70 g/ha [6] | pest or weed control at 140 g/ha [6] | pest or weed control at 17.5 g/ha [7] | pest or weed control at 35 g/ha [7] | pest or weed control at 70 g/ha [7] | pest or weed control at 140 g/ha [7] | pest or weed control at 17.5 g/ha [8] | pest or weed control at 35 g/ha [8] | pest or weed control at 70 g/ha [8] | pest or weed control at 140 g/ha [8] | pest or weed control at 17.5 g/ha [9] | pest or weed control at 35 g/ha [9] | pest or weed control at 70 g/ha [9] | pest or weed control at 140 g/ha [9] | pest or weed control at 17.5 g/ha [10] | pest or weed control at 35 g/ha [10] | pest or weed control at 70 g/ha [10] | pest or weed control at 140 g/ha [10] | pest or weed control at 17.5 g/ha [11] | pest or weed control at 35 g/ha [11] | pest or weed control at 70 g/ha [11] | pest or weed control at 140 g/ha [11]
80%: pest or weed control at 140 g/ha [1] | pest or weed control at 140 g/ha [2] | pest or weed control at 70 g/ha [3]
60%: pest or weed control at 35 g/ha [2] | pest or weed control at 35 g/ha [3]
